According to patent publication US4656166A, “Antibiotic compounds derived from cephalosporins, process for their production and pharmaceutical compositions” (Sanofi, priority 1983, dated 1987):
In brackets after ≈: the same amount, converted by molar mass.

Experiments:
Assay type in all cases: cell-based
Klebsiella RO 30 = assay: MIC, in vitro dilution method, Klebsiella RO 30 (Table III); details: RO30; Klebsiella RO 30; dilution method; read-out: MIC
Source text: (§1) The products of the invention have been studied as regards their pharmacological properties and, more especially, bacteriostatic action. This has been determined in vitro by the dilution method, and the study was on Gram negative strains.
(§2) Results, expressed in minimum inhibiting concentrations (MIC-- μg/ml), are collected in the following table (Table III).

Enterobacter RO 154 = assay: MIC, in vitro dilution method, Enterobacter RO 154 (Table III); details: RO154; Enterobacter RO 154; dilution method; read-out: MIC
Source text: as §1, §2

Escherichia coli SOL 90 = assay: MIC, in vitro dilution method, Escherichia coli SOL 90 (Table III); details: SOL90; Escherichia coli SOL 90; dilution method; read-out: MIC
Source text: as §1, §2

Citrobacter RL 49 = assay: MIC, in vitro dilution method, Citrobacter RL 49 (Table III); details: RL49; Citrobacter RL 49; dilution method; read-out: MIC
Source text: as §1, §2

[1] = test system: Proteus vulgaris RL 99 bis; assay: MIC, in vitro dilution method, Proteus vulgaris RL 99 bis (Table III); details: RL99BIS; Proteus vulgaris RL 99 bis; dilution method; read-out: MIC
Source text: as §1, §2

Pseudomonas RL 112 = assay: MIC, in vitro dilution method, Pseudomonas RL 112 (Table III); details: RL112
Source text: as §1, §2

Serratia RL 72 = assay: MIC, in vitro dilution method, Serratia RL 72 (Table III); details: RL72
Source text: as §1, §2

Structure (SMILES)	MIC (Klebsiella RO 30)	MIC (Enterobacter RO 154)	MIC (Escherichia coli SOL 90)	MIC (Citrobacter RL 49)	MIC [1]	MIC (Pseudomonas RL 112)	MIC (Serratia RL 72)
C[C@H](N)C(=O)OCC1=C(C(=O)O)N2C(=O)C(NC(=O)/C(=N\OC(C)(C)C(=O)O)c3csc(N)n3)C2[S+]([O-])C1 (stereo partly drawn) [41 733]	1 µg/mL (≈ 1.75 µM)	1 µg/mL (≈ 1.75 µM)	2 µg/mL (≈ 3.49 µM)	2 µg/mL (≈ 3.49 µM)	0.5 µg/mL (≈ 0.873 µM)	8 µg/mL (≈ 14 µM)	8 µg/mL (≈ 14 µM)
CC(C)[C@H](N)C(=O)OCC1=C(C(=O)O)N2C(=O)C(NC(=O)/C(=N\OC(C)(C)C(=O)O)c3csc(N)n3)C2[S+]([O-])C1 (stereo partly drawn) [41 806]	0.5 µg/mL (≈ 0.832 µM)	8 µg/mL (≈ 13.3 µM)	1 µg/mL (≈ 1.66 µM)	1 µg/mL (≈ 1.66 µM)	0.5 µg/mL (≈ 0.832 µM)	8 µg/mL (≈ 13.3 µM)	4 µg/mL (≈ 6.66 µM)
CC(C)(O/N=C(\C(=O)NC1C(=O)N2C(C(=O)O)=C(COC(=O)CCCCCCCN)C[S+]([O-])C12)c1csc(N)n1)C(=O)O (stereo not drawn) [41 856]	0.25 µg/mL (≈ 0.389 µM)	4 µg/mL (≈ 6.22 µM)	0.5 µg/mL (≈ 0.778 µM)	2 µg/mL (≈ 3.11 µM)	≤ 0.12 µg/mL	16 µg/mL (≈ 24.9 µM)	2 µg/mL (≈ 3.11 µM)
CC(C)(N)C(=O)OCC1=C(C(=O)O)N2C(=O)C(NC(=O)/C(=N\OC(C)(C)C(=O)O)c3csc(N)n3)C2[S+]([O-])C1 (stereo not drawn) [41 858]	0.5 µg/mL (≈ 0.852 µM)	8 µg/mL (≈ 13.6 µM)	2 µg/mL (≈ 3.41 µM)	1 µg/mL (≈ 1.7 µM)	0.5 µg/mL (≈ 0.852 µM)	8 µg/mL (≈ 13.6 µM)	4 µg/mL (≈ 6.82 µM)
CC(C)C[C@H](N)C(=O)OCC1=C(C(=O)O)N2C(=O)C(NC(=O)/C(=N\OC(C)(C)C(=O)O)c3csc(N)n3)C2[S+]([O-])C1 (stereo partly drawn) [41 859]	0.5 µg/mL (≈ 0.813 µM)	8 µg/mL (≈ 13 µM)	1 µg/mL (≈ 1.63 µM)	2 µg/mL (≈ 3.25 µM)	0.25 µg/mL (≈ 0.407 µM)	16 µg/mL (≈ 26 µM)	4 µg/mL (≈ 6.51 µM)
CCC(C)C(N)C(=O)OCC1=C(C(=O)O)N2C(=O)C(NC(=O)C(=NOC(C)(C)C(=O)O)c3csc(N)n3)C2[S+]([O-])C1 (stereo not drawn) [41 860]	0.5 µg/mL (≈ 0.813 µM)	8 µg/mL (≈ 13 µM)	2 µg/mL (≈ 3.25 µM)	1 µg/mL (≈ 1.63 µM)	0.5 µg/mL (≈ 0.813 µM)	16 µg/mL (≈ 26 µM)	4 µg/mL (≈ 6.51 µM)
CC(O)C(N)C(=O)OCC1=C(C(=O)O)N2C(=O)C(NC(=O)C(=NOC(C)(C)C(=O)O)c3csc(N)n3)C2[S+]([O-])C1 (stereo not drawn) [41 885]	0.5 µg/mL (≈ 0.83 µM)	8 µg/mL (≈ 13.3 µM)	1 µg/mL (≈ 1.66 µM)	4 µg/mL (≈ 6.64 µM)	0.5 µg/mL (≈ 0.83 µM)	8 µg/mL (≈ 13.3 µM)	4 µg/mL (≈ 6.64 µM)
CSCC[C@H](N)C(=O)OCC1=C(C(=O)O)N2C(=O)C(NC(=O)/C(=N\OC(C)(C)C(=O)O)c3csc(N)n3)C2[S+]([O-])C1 (stereo partly drawn) [41 887]	0.5 µg/mL (≈ 0.79 µM)	8 µg/mL (≈ 12.6 µM)	2 µg/mL (≈ 3.16 µM)	4 µg/mL (≈ 6.32 µM)	0.25 µg/mL (≈ 0.395 µM)	8 µg/mL (≈ 12.6 µM)	4 µg/mL (≈ 6.32 µM)
CC(C)(O/N=C(\C(=O)NC1C(=O)N2C(C(=O)O)=C(COC(=O)[C@@H](N)CCCCN)C[S+]([O-])C12)c1csc(N)n1)C(=O)O (stereo partly drawn) [41 888]	1 µg/mL (≈ 1.59 µM)	8 µg/mL (≈ 12.7 µM)	2 µg/mL (≈ 3.18 µM)	2 µg/mL (≈ 3.18 µM)	1 µg/mL (≈ 1.59 µM)	8 µg/mL (≈ 12.7 µM)	8 µg/mL (≈ 12.7 µM)
CC(C)(O/N=C(\C(=O)NC1C(=O)N2C(C(=O)O)=C(COC(=O)[C@@H](N)Cc3c[nH]cn3)C[S+]([O-])C12)c1csc(N)n1)C(=O)O (stereo partly drawn) [41 889]	1 µg/mL (≈ 1.57 µM)	8 µg/mL (≈ 12.5 µM)	1 µg/mL (≈ 1.57 µM)	1 µg/mL (≈ 1.57 µM)	0.5 µg/mL (≈ 0.783 µM)	8 µg/mL (≈ 12.5 µM)	4 µg/mL (≈ 6.26 µM)
C[C@@H](N)C(=O)OCC1=C(C(=O)O)N2C(=O)C(NC(=O)/C(=N\OC(C)(C)C(=O)O)c3csc(N)n3)C2[S+]([O-])C1 (stereo partly drawn) [41 891]	0.5 µg/mL (≈ 0.873 µM)	8 µg/mL (≈ 14 µM)	0.5 µg/mL (≈ 0.873 µM)	0.5 µg/mL (≈ 0.873 µM)	0.5 µg/mL (≈ 0.873 µM)	8 µg/mL (≈ 14 µM)	4 µg/mL (≈ 6.99 µM)
CC(C)(O/N=C(\C(=O)NC1C(=O)N2C(C(=O)O)=C(COC(=O)C3(N)CCCCC3)C[S+]([O-])C12)c1csc(N)n1)C(=O)O (stereo not drawn) [41 976]	0.5 µg/mL (≈ 0.798 µM)	8 µg/mL (≈ 12.8 µM)	1 µg/mL (≈ 1.6 µM)	0.5 µg/mL (≈ 0.798 µM)	0.25 µg/mL (≈ 0.399 µM)	8 µg/mL (≈ 12.8 µM)	8 µg/mL (≈ 12.8 µM)
CC(CN)C(=O)OCC1=C(C(=O)O)N2C(=O)C(NC(=O)C(=NOC(C)(C)C(=O)O)c3csc(N)n3)C2[S+]([O-])C1 (stereo not drawn) [42 025]	0.5 µg/mL (≈ 0.852 µM)	4 µg/mL (≈ 6.82 µM)	0.5 µg/mL (≈ 0.852 µM)	0.5 µg/mL (≈ 0.852 µM)	0.25 µg/mL (≈ 0.426 µM)	4 µg/mL (≈ 6.82 µM)	1 µg/mL (≈ 1.7 µM)
CC(C)(ON=C(C(=O)NC1C(=O)N2C(C(=O)O)=C(COC(=O)CC(N)c3ccccc3)C[S+]([O-])C12)c1csc(N)n1)C(=O)O (stereo not drawn) [42 026]	0.25 µg/mL (≈ 0.385 µM)	4 µg/mL (≈ 6.17 µM)	0.5 µg/mL (≈ 0.771 µM)	0.25 µg/mL (≈ 0.385 µM)	≤ 0.12 µg/mL	8 µg/mL (≈ 12.3 µM)	1 µg/mL (≈ 1.54 µM)
CNCCCCC(=O)OCC1=C(C(=O)O)N2C(=O)C(NC(=O)/C(=N\OC(C)(C)C(=O)O)c3csc(N)n3)C2[S+]([O-])C1 (stereo not drawn) [42 029]	0.25 µg/mL (≈ 0.407 µM)	2 µg/mL (≈ 3.25 µM)	0.25 µg/mL (≈ 0.407 µM)	0.25 µg/mL (≈ 0.407 µM)	≤ 0.12 µg/mL	8 µg/mL (≈ 13 µM)	0.5 µg/mL (≈ 0.813 µM)
CC(C)(CN)C(=O)OCC1=C(C(=O)O)N2C(=O)C(NC(=O)/C(=N\OC3(C(=O)O)CCC3)c3csc(N)n3)C2[S+]([O-])C1 (stereo not drawn) [42 208]	0.5 µg/mL (≈ 0.816 µM)	0.25 µg/mL (≈ 0.408 µM)	0.5 µg/mL (≈ 0.816 µM)	0.5 µg/mL (≈ 0.816 µM)	≤ 0.12 µg/mL	4 µg/mL (≈ 6.53 µM)	1 µg/mL (≈ 1.63 µM)
Cc1cc(CN)ccc1C(=O)SCC1=C(C(=O)O)N2C(=O)C(NC(=O)C(=NOC(C)(C)C(=O)O)c3csc(N)n3)C2[S+]([O-])C1 (stereo not drawn) [compound 42850]	0.25 µg/mL (≈ 0.376 µM)	2 µg/mL (≈ 3.01 µM)	0.5 µg/mL (≈ 0.752 µM)			8 µg/mL (≈ 12 µM)	
Cc1cc(CN)ccc1C(=O)SCC1=C(C(=O)O)N2C(=O)C(NC(=O)C(=NOC3(C(=O)O)CCC3)c3csc(N)n3)C2[S+]([O-])C1 (stereo not drawn) [compound 42851]	0.25 µg/mL (≈ 0.369 µM)	1 µg/mL (≈ 1.48 µM)	0.5 µg/mL (≈ 0.739 µM)			8 µg/mL (≈ 11.8 µM)	
